Key:
[1] = target: cloned human P2Y1 receptors (Homo sapiens (Human), UniProt P47900); test: Binding Assay B - Scintillation Proximity Assay (SPA) for P2Y1 binding, [33P] 2MeS-ADP; conditions: SPA, 0.3 nM [33P] 2MeS-ADP, Cheng-Prusoff; read-out: P2Y1 Ki (nM) using binding assay B
Description: Binding Assay B—Scintillation Proximity Assay (SPA) for P2Y1 Binding
A SPA membrane binding assay was used to identify inhibitors of [^33P] […] Reactions were allowed to proceed to completion at room temperature for 1 hour followed by centrifugation of the plate for 5 min. About 40 μL of the aqueous solution was aspirated. Plates were sealed and the [^33P]

[2] = test system: human platelet rich plasma (PRP); test: ADP induced platelet aggregation assay; conditions: Homo sapiens, Platelet, 5 min, read-out: PA IC50 (μM) @ 10 μM ADP, human PRP, 10 μM ADP, AUC at 5 minute
Description: The ability of P2Y1 antagonists covered in the present invention to inhibit platelet aggregation induced by 10 μM ADP was tested using human platelet rich plasma (PRP) as described in Platelet Protocols: Research and Clinical Laboratory Procedures (White, M. M. et al., Academic Press (1999)). Human blood was collected in 30 μM (final concentration in blood) argatroban (GSK) as the anticoagulant at a ratio of 1 mL per 9 mL of blood. The PRP was isolated by centrifugation at 170 g for 12 minutes. The platelet poor plasma (PPP) was used as the blank for optical aggregometry. Compounds of the present invention in DMSO solution was preincubated with 250 μL PRP at 37° C. for 1 minute with stirring speed of 1000 rpm. Aggregation was initiated by addition of 2.5 μL of 1 mM ADP (Chrono-log, Havertown, Pa.) for a final ADP concentration of 10 μM. Platelet aggregation was monitored using Optical Aggregometer (Chrono-log, Havertown, Pa.) and the area under the curve (AUC) at 5 minute was measured. IC50 was calculated using vehicle control as 0% inhibition.

Sequence of cloned human P2Y1 receptors (P47900 whole entry): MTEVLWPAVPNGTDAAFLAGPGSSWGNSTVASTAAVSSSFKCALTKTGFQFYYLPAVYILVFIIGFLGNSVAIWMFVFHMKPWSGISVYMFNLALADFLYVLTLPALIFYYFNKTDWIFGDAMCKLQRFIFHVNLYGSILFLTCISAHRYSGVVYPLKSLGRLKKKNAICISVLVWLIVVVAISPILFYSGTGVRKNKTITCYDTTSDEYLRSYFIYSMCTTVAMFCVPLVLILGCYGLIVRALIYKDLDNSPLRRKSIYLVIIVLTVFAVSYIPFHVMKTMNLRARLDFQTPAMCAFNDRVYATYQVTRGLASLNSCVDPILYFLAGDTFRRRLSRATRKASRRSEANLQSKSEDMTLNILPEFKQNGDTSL

Compound | Ki [1] [nM] | IC50 [2] [µM]
CC1(C)CN(c2ccccc2NC(=O)Nc2nc3ccc(F)cc3s2)c2c(O)cc(F)c(-c3nc4ccc(Cl)cc4s3)c21 [Example 155, 1-(2-(4-(6-Chlorobenzo[d]thiazol-2-yl)-5-fluoro-7-hydroxy-3,3-dimethylindolin-1-yl)phenyl)-3-(6-fluorobenzo[d]thiazol-2-yl)urea] | 38 | 0.6
CC1(C)CN(c2ccccc2NC(=O)Nc2nc3ccc(F)nc3s2)c2c(O)cc(F)c(-c3nc4cc(Cl)ccc4s3)c21 [Example 157, 1-(2-(4-(5-Chlorobenzo[d]thiazol-2-yl)-5-fluoro-7-hydroxy-3,3-dimethylindolin-1-yl)phenyl)-3-(5-fluorothiazolo[5,4-b]pyridin-2-yl)urea] | 18.7 | 0.28
CC1(C)CN(c2ccccc2NC(=O)Nc2nc3ccc(F)cc3s2)c2c(O)cc(F)c(-c3ccc(C(F)(F)F)nc3)c21 [Example 158, 1-(2-(5-Fluoro-7-hydroxy-3,3-dimethyl-4-(6-(trifluoromethyl)pyridin-3-yl)indolin-1-yl)phenyl)-3-(6-fluorobenzo[d]thiazol-2-yl)urea] | 5.7 | 0.2
CC1(C)CN(c2ccccc2NC(=O)Nc2ccc(OC(F)(F)F)cc2)c2c(O)cc(F)c(-c3ccc(F)cn3)c21 [Example 159, 1-(2-(5-Fluoro-4-(5-fluoropyridin-2-yl)-7-hydroxy-3,3-dimethylindolin-1-yl)phenyl)-3-(4-(trifluoromethoxy)phenyl)urea] | 7.4 | 0.3
CC(C)(C)c1ncc(-c2c(F)cc(O)c3c2C(C)(C)CN3c2ccccc2NC(=O)Nc2ccc(OC(F)(F)F)cc2)cn1 [Example 160, 1-(2-(4-(2-(tert-Butyl)pyrimidin-5-yl)-5-fluoro-7-hydroxy-3,3-dimethylindolin-1-yl)phenyl)-3-(4-(trifluoromethoxy)phenyl)urea] | 13.1 | 0.09
CC1(C)CN(c2ccccc2NC(=O)Nc2ccc(OC(F)(F)F)cc2)c2c(O)cc(F)c(-c3cc(F)nc(F)c3)c21 [Example 161, 1-(2-(4-(2,6-Difluoropyridin-4-yl)-5-fluoro-7-hydroxy-3,3-dimethylindolin-1-yl)phenyl)-3-(4-(trifluoromethoxy)phenyl)urea] | 6.6 | 0.16
CC1(C)CN(c2ccccc2NC(=O)Nc2ccc(OC(F)(F)F)cc2)c2c(O)cc(F)c(-c3ccc(Cl)cn3)c21 [Example 162, 1-(2-(4-(5-Chloropyridin-2-yl)-5-fluoro-7-hydroxy-3,3-dimethylindolin-1-yl)phenyl)-3-(4-(trifluoromethoxy)phenyl)urea] | 6.4 | 0.25
CC1(C)CN(c2ccccc2NC(=O)Nc2ccc(OC(F)(F)F)cc2)c2c(O)cc(F)c(-c3cnc(Cl)cn3)c21 [Example 163, 1-(2-(4-(5-Chloropyrazin-2-yl)-5-fluoro-7-hydroxy-3,3-dimethylindolin-1-yl)phenyl)-3-(4-(trifluoromethoxy)phenyl)urea] | 43.1 | 0.26
CC1(C)CN(c2ccccc2NC(=O)Nc2ccc(OC(F)(F)F)cc2)c2c(O)cc(F)c(-c3ncc(F)cn3)c21 [Example 164, 1-(2-(5-Fluoro-4-(5-fluoropyrimidin-2-yl)-7-hydroxy-3,3-dimethylindolin-1-yl)phenyl)-3-(4-(trifluoromethoxy)phenyl)urea] | 10.8 | 0.95
CC(C)(C)c1ccc(-c2c(F)cc(O)c3c2C(C)(C)CN3c2ccccc2NC(=O)Nc2ccc(OC(F)(F)F)cc2)cn1 [Example 165, 1-(2-(4-(6-(tert-Butyl)pyridin-3-yl)-5-fluoro-7-hydroxy-3,3-dimethylindolin-1-yl)phenyl)-3-(4-(trifluoromethoxy)phenyl)urea] | 26.8 | 0.21
CC1(C)CN(c2ccccc2NC(=O)Nc2nc3ccc(F)cc3s2)c2c(O)cc(F)c(-c3ccc(C(F)(F)F)cn3)c21 [Example 168, 1-(2-(5-Fluoro-7-hydroxy-3,3-dimethyl-4-(5-(trifluoromethyl)pyridin-2-yl)indolin-1-yl)phenyl)-3-(6-fluorobenzo[d]thiazol-2-yl)urea] | 29.4 | 0.45
CC1(C)CN(c2ccccc2NC(=O)Nc2ccc(OC(F)(F)F)cc2)c2c(O)ccc(-c3nc4cc(F)ccc4s3)c21 [Example 170, 1-(2-(4-(5-Fluorobenzo[d]thiazol-2-yl)-7-hydroxy-3,3-dimethylindolin-1-yl)phenyl)-3-(4-(trifluoromethoxy)phenyl)urea] | 14.1 | 0.25
CC1(C)CN(c2ccccc2NC(=O)Nc2nc3ccc(F)nc3s2)c2c(O)cc(F)c(-c3nc4ccc(F)cc4s3)c21 [Example 178, 1-(2-(5-Fluoro-4-(6-fluorobenzo[d]thiazol-2-yl)-7-hydroxy-3,3-dimethylindolin-1-yl)phenyl)-3-(5-fluorothiazolo[5,4-b]pyridin-2-yl)urea] | 17.9 | 0.74
COc1ccc2nc(NC(=O)Nc3ccccc3N3CC(C)(C)c4c(-c5nc6ccc(F)cc6s5)c(F)cc(O)c43)sc2c1 [Example 179, 1-(2-(5-Fluoro-4-(6-fluorobenzo[d]thiazol-2-yl)-7-hydroxy-3,3-dimethylindolin-1-yl)phenyl)-3-(6-methoxybenzo[d]thiazol-2-yl)urea] | 22.6 | 0.49
CC1(C)CN(c2ccccc2NC(=O)Nc2csc(C(F)(F)F)n2)c2c(O)cc(F)c(-c3nc4cc(Cl)ccc4s3)c21 [Example 180, 1-(2-(4-(5-Chlorobenzo[d]thiazol-2-yl)-5-fluoro-7-hydroxy-3,3-dimethylindolin-1-yl)phenyl)-3-(2-(trifluoromethyl)thiazol-4-yl)urea] | 28.4 | 0.56
CC1(C)CN(c2ccccc2NC(=O)Nc2csc(Cl)n2)c2c(O)cc(F)c(-c3nc4cc(F)ccc4s3)c21 [Example 181, 1-(2-Chlorothiazol-4-yl)-3-(2-(5-fluoro-4-(5-fluorobenzo[d]thiazol-2-yl)-7-hydroxy-3,3-dimethylindolin-1-yl)phenyl)urea] | 9.7 | 0.49
CC1(C)CN(c2ccccc2NC(=O)Nc2nc3ccc(F)nc3s2)c2c(O)cc(F)c(-c3nc4cc(F)ccc4s3)c21 [Example 182, 1-(2-(5-Fluoro-4-(5-fluorobenzo[d]thiazol-2-yl)-7-hydroxy-3,3-dimethylindolin-1-yl)phenyl)-3-(5-fluorothiazolo[5,4-b]pyridin-2-yl)urea] | 15.7 | 0.51
Cn1nc(C(F)(F)F)cc1-c1c(F)cc(O)c2c1C(C)(C)CN2c1ccccc1NC(=O)Nc1ccc(OC(F)(F)F)cc1 [Example 183, 1-(2-(5-Fluoro-7-hydroxy-3,3-dimethyl-4-(1-methyl-3-(trifluoromethyl)-1H-pyrazol-5-yl)indolin-1-yl)phenyl)-3-(4-(trifluoromethoxy)phenyl)urea] | 11.3 | 0.21
CC(C)Cn1cc(-c2c(F)cc(O)c3c2C(C)(C)CN3c2ccccc2NC(=O)Nc2ccc(OC(F)(F)F)cc2)cn1 [Example 184, 1-(2-(5-Fluoro-7-hydroxy-4-(1-isobutyl-1H-pyrazol-4-yl)-3,3-dimethylindolin-1-yl)phenyl)-3-(4-(trifluoromethoxy)phenyl)urea] | 10.7 | 0.26
